{
  "source": "patent US5238964A",
  "about": "“Agent for treatment of cerebrovascular contraction” (Torii & Co., Ltd., priority 1990, dated 1993)",
  "key": {"C 1r": {"system": "C 1r", "conditions": "complement system; cited from earlier work"}, "trypsin": {"system": "trypsin", "conditions": "cited from earlier work"}, "factor Xa": {"system": "factor Xa", "conditions": "coagulation system; cited from earlier work"}, "thrombin": {"system": "thrombin", "conditions": "coagulation system; cited from earlier work"}, "C 1s": {"system": "C 1s", "conditions": "complement system; cited from earlier work"}, "platelet agglutination": {"system": "platelet agglutination", "conditions": "cited from earlier work"}, "[1]": {"conditions": "cited from earlier work"}, "[2]": {"assay": "intermittent intravenous administration to subarachnoid bleeding patients after acute phase operation (DIND, CT low, Angiographic Spasm Scale, Glasgow Outcome Scale)", "type": "in vivo, human (patients)", "conditions": "for CT low due to spasm: control 43%; for good recovery (Glasgow Outcome Scale) / vegetative survival+death (Glasgow Outcome Scale): control 36%", "description": "We have tried intermittent intravenous administration of FUT-175 (nafamostat mesilate, the present compound) for the purpose of prevention and/or treatment of cerebrovascular contraction after acute phase operation on subarachnoid bleeding patients. A dosage of 40-160 mg/day was chosen by converting the amount of drug per kg rabbit weight to amount of drug per kg of human weight.\nThe subjects were the ruptured cerebral aneurysm patients who had acute phase operation and belonged to Group 3 or 4 in Fisher's preoperative CT classification (Fisher, C. M., et al., \"Cerebral vasospasm with ruptured saccular aneurysm-Clinical manifestations\" (1977), Neurosurgery, volume 1, pages 245-248). […] Also, the subjects were limited to the cases of Grades II-IV in Hunt and Hess gravity grating without modification by previous history and to the patients to whom administration could be started within 48 hours after crisis (Hunt, W. E., et al., \"Surgical risk as related to time of intervention in the repair of intracranial aneurysms\" (1968), J. Neurosurg., volume 28, pages 14-20).\nThe compound was given to the subjects by intermittent intravenous administration starting immediately after operation. In Group A, the compound was administered twice a day, 20 mg per administration (40 mg in total daily dosage) for 4 days; four times a day, 20 mg per administration (80 mg in total daily dosage) for 4 days in Group B; and four times a day, 40 mg per administration (160 mg in total daily dosage) for 4 days in Group C. Each dose of the compound was dissolved in 100 ml of physiological saline. Time of one intravenous administration was normally 2 hours.\nThe control cases were the serious subarachnoid bleeding patients after acute phase clipping operation performed in our clinic in 1989. Both groups were substantially commensurate with each other in gravity grating and CT classification (Fisher classification by computed tomography), but in the control group there were slightly more cases of mycotic cerebral aneurysm than in the treated group.\nThere was no difference between the control and treated groups in substances of treatment excepting administration of the present compound and in operating staff. The effect of the treatment was judged by occurrence or non-occurrence of delayed ischemic neurological deficit (DIND), low-density CT area due to vasospasm and caliber change in arteries as observed by cerebral angiography conducted in the period from day 5 to day 8 (post occurrence of cerebrovascular contraction) which is considered the peak period of development of vasospasm.\nFor judgement of spasm in the control group, an Angiographic Spasm Scale (ASS) of the following grading was prepared:\nGrade 0 (none): No caliber change in any arteries,\nGrade 1 (mild): Vascular contraction is localized,\nGrade 2 (moderate): Multisegmental vascular contraction is observed, and\nGrade 3 (severe): Severe contraction exceeding 50% is seen in multisegmental sites (Weir, B., et al., \"Time course of vasospasm in man\" (1978), J. Neurosurg., volume 48, pages 173-178; Kim, H., et al., \"Time course of vasospasm--Its clinical significance\" (1979), Neuro. Med. Chir. (Tokyo), volume 19, pages 95-102).\nThe Glasgow Outcome Scale (GOS) was used to evaluate the outcome one month after crisis. According to GOS, there are five degrees: 1-death, 2-vegetative state, 3-severe disability, 4-moderate disability, 5-good recovery."}, "plasmin": {"system": "plasmin", "conditions": "fibrinolytic system; cited from earlier work"}, "[3]": {"system": "factor D of complement system", "conditions": "cited from earlier work"}, "[4]": {"system": "circulating blood coagulating action", "assay": "bleeding and coagulation times measured during intravenous administration in treated groups B and C", "type": "in vivo, human (patients)", "description": "The present compound is a serine protease inhibitor which can inhibit various kinds of serine protease including C 1r, C 1s, factor B and factor D of complement system, factor XIIa, factor Xa and thrombin of coagulation system, plasma kallikrein of quinine system, plasmin of fibrinolytic system, trypsin, etc. […] It was considered that the administration method employed in this experiment would give no influence on circulating blood coagulating action of the compound."}, "factor XIIa": {"system": "factor XIIa", "conditions": "coagulation system; cited from earlier work"}, "plasma kallikrein": {"system": "plasma kallikrein", "conditions": "quinine system; cited from earlier work"}, "[5]": {"assay": "experimental subarachnoid bleeding in rabbits, basal arteria thickness ratio", "type": "in vivo, rabbit", "conditions": "for Basal arteria thickness ratio: after vs before subarachnoid bleeding; for suppression of cerebrovascular contraction subsequent to subarachnoid bleeding: rabbits, i.v.", "description": "By injecting previously collected blood into the postcisterna of a rabbit, subarachnoid bleeding similar to human subarachnoid bleeding can be produced experimentally in the rabbit. The therapeutic effect of a pharmaceutical composition for treating cerebrovascular contraction is judged by comparing the thickness of the basal arteria before and after the experimental production of subarachnoid bleeding.\nSubarachnoid bleeding was produced experimentally in rabbits, and 20 minutes thereafter 3 mg, 6 mg and 9 mg of 6-amidino-2-naphthyl p-guanidinobenzoate dimethanesulfonate [drawing 12] were respectively administered intravenously to the rabbits."}, "[6]": {"system": "factor B of complement system", "conditions": "cited from earlier work"}, "[7]": {"conditions": "Groups A, B and C, one month after crisis"}, "[8]": {"conditions": "Groups B and C (higher dosage), one month after crisis"}, "[9]": {"conditions": "after serious subarachnoid bleeding"}},
  "data": [
    {"molecule": "CS(=O)(=O)O.CS(=O)(=O)O.N=C(N)Nc1ccc(C(=O)Oc2ccc3cc(C(=N)N)ccc3c2)cc1", "note": "[6-amidino-2-naphthyl p-guanidinobenzoate dimethanesulfonate]", "values": [
      {"measurement": "inhibition of C 1r", "setting": "C 1r", "result": "can inhibit"},
      {"measurement": "inhibition of trypsin", "setting": "trypsin", "result": "can inhibit"},
      {"measurement": "inhibition of factor Xa", "setting": "factor Xa", "result": "can inhibit"},
      {"measurement": "inhibition of thrombin", "setting": "thrombin", "result": "can inhibit"},
      {"measurement": "inhibition of C 1s", "setting": "C 1s", "result": "can inhibit"},
      {"measurement": "platelet agglutination inhibiting action", "setting": "platelet agglutination", "result": "concentration dependent platelet agglutination inhibiting action"},
      {"measurement": "passage into tissue", "setting": "[1]; in vivo", "result": "quickly passes into tissue"},
      {"measurement": "half-life period in blood, α phase", "setting": "[1]; α phase", "result": 1.1, "unit": "min"},
      {"measurement": "half-life period in blood, β phase", "setting": "[1]; β phase", "result": 23.1, "unit": "min"},
      {"measurement": "CT-low attributable to DIND", "setting": "[2]; Group A, 40 mg/day for 4 days", "result": "2 out of 9"},
      {"measurement": "cases at grade 1 of ASS", "setting": "[2]; Group A, 40 mg/day for 4 days", "result": 3, "unit": "cases"},
      {"measurement": "cases at grade 2 of ASS", "setting": "[2]; Group A, 40 mg/day for 4 days", "result": 3, "unit": "cases"},
      {"measurement": "cases at grade 3 of ASS", "setting": "[2]; Group A, 40 mg/day for 4 days", "result": 3, "unit": "cases"},
      {"measurement": "incidence of DIND", "setting": "[2]; Group A, 40 mg/day for 4 days", "result": "2 out of 9"},
      {"measurement": "cases at grade 0 (no caliber change in any arteries)", "setting": "[2]; Group B, 80 mg/day for 4 days", "result": 4, "unit": "cases"},
      {"measurement": "cases at grade 1 of ASS", "setting": "[2]; Group B, 80 mg/day for 4 days", "result": 3, "unit": "cases"},
      {"measurement": "cases at grade 3 of ASS", "setting": "[2]; Group B, 80 mg/day for 4 days", "result": "one"},
      {"measurement": "incidence of DIND", "setting": "[2]; Group B, 80 mg/day for 4 days", "result": "one out of 9"},
      {"measurement": "low density area on CT scan", "setting": "[2]; Group B, 80 mg/day for 4 days", "result": "no case"},
      {"measurement": "incidence of DIND", "setting": "[2]; Group C, 160 mg/day for 4 days", "result": "no case"},
      {"measurement": "good in GOS (Glasgow Outcome Scale)", "setting": "[2]; Group C, 160 mg/day for 4 days, one month after crisis", "result": "4 out of 5"},
      {"measurement": "subjects with no change or mild degree of contraction (angiographic spasm grading)", "setting": "[2]; Groups A, B and C", "result": 64, "unit": "%"},
      {"measurement": "ASS Grade 3 (severe)", "setting": "[2]; Groups A, B and C combined", "result": 18, "unit": "%"},
      {"measurement": "CT low due to spasm", "setting": "[2]; Groups A, B and C", "result": 9, "unit": "%"},
      {"measurement": "incidence of DIND", "setting": "[2]; Groups A, B and C, control 55%", "result": 13, "unit": "%"},
      {"measurement": "good recovery (Glasgow Outcome Scale)", "setting": "[2]; [7]", "result": 65, "unit": "%"},
      {"measurement": "vegetative survival+death (Glasgow Outcome Scale)", "setting": "[2]; [7]", "result": 9, "unit": "%"},
      {"measurement": "ASS Grade 3 (severe)", "setting": "[2]; Groups B and C (higher dosage)", "result": 8, "unit": "%"},
      {"measurement": "subjects mild or none in degree of contraction (angiographic spasm grading)", "setting": "[2]; Groups B and C (higher dosage)", "result": 85, "unit": "%"},
      {"measurement": "CT low due to spasm", "setting": "[2]; Groups B and C (higher dosage)", "result": 0, "unit": "%"},
      {"measurement": "incidence of DIND", "setting": "[2]; Groups B and C (higher dosage), control 55%", "result": 7, "unit": "%"},
      {"measurement": "good recovery (Glasgow Outcome Scale)", "setting": "[2]; [8]", "result": 71, "unit": "%"},
      {"measurement": "vegetative survival+death (Glasgow Outcome Scale)", "setting": "[2]; [8]", "result": 0, "unit": "%"},
      {"measurement": "inhibition of incidence of delayed ischemic neurological deficit", "setting": "[2]; [9]", "result": "could inhibit incidence of delayed ischemic neurological deficit"},
      {"measurement": "prognosis of the patient", "setting": "[2]; [9]", "result": "improve the prognosis of the patient"},
      {"measurement": "inhibition of plasmin", "setting": "plasmin", "result": "can inhibit"},
      {"measurement": "inhibition of factor D", "setting": "[3]", "result": "can inhibit"},
      {"measurement": "activated partial thromboplastin time (APTT)", "setting": "[4]", "result": "in the normal ranges"},
      {"measurement": "bleeding time", "setting": "[4]", "result": "in the normal ranges"},
      {"measurement": "coagulation time", "setting": "[4]", "result": "in the normal ranges"},
      {"measurement": "prothrombin time (PT)", "setting": "[4]", "result": "in the normal ranges"},
      {"measurement": "inhibition of factor XIIa", "setting": "factor XIIa", "result": "can inhibit"},
      {"measurement": "inhibition of plasma kallikrein", "setting": "plasma kallikrein", "result": "can inhibit"},
      {"measurement": "Basal arteria thickness ratio", "setting": "[5]; 3 mg/kg i.v., 1st day", "result": 86, "unit": "%"},
      {"measurement": "Basal arteria thickness ratio", "setting": "[5]; 3 mg/kg i.v., 2nd day", "result": 79, "unit": "%"},
      {"measurement": "Basal arteria thickness ratio", "setting": "[5]; 3 mg/kg i.v., 3rd day", "result": 85, "unit": "%"},
      {"measurement": "Basal arteria thickness ratio", "setting": "[5]; 3 mg/kg i.v., 4th day", "result": 88, "unit": "%"},
      {"measurement": "Basal arteria thickness ratio", "setting": "[5]; 3 mg/kg i.v., 5th day", "result": 90, "unit": "%"},
      {"measurement": "Basal arteria thickness ratio", "setting": "[5]; 6 mg/kg i.v., 1st day", "result": 97, "unit": "%"},
      {"measurement": "Basal arteria thickness ratio", "setting": "[5]; 6 mg/kg i.v., 2nd day", "result": 95, "unit": "%"},
      {"measurement": "Basal arteria thickness ratio", "setting": "[5]; 6 mg/kg i.v., 3rd day", "result": 95, "unit": "%"},
      {"measurement": "Basal arteria thickness ratio", "setting": "[5]; 6 mg/kg i.v., 4th day", "result": 96, "unit": "%"},
      {"measurement": "Basal arteria thickness ratio", "setting": "[5]; 6 mg/kg i.v., 5th day", "result": 101, "unit": "%"},
      {"measurement": "suppression of cerebrovascular contraction subsequent to subarachnoid bleeding", "setting": "[5]", "result": "clearly suppressed the cerebrovascular contraction"},
      {"measurement": "inhibition of factor B", "setting": "[6]", "result": "can inhibit"}
    ]},
    {"molecule": "CS(=O)(=O)O.N=C(N)Nc1ccc(C(=O)Oc2ccc(SCCN3C(=O)CCC3=O)cc2)cc1", "note": "[4-(2-succinimidoethylthio)phenyl 4-guanidinobenzoate methanesulfonate]", "values": [
      {"measurement": "suppression of cerebrovascular contraction subsequent to subarachnoid bleeding", "setting": "[5]", "result": "clearly suppressed the cerebrovascular contraction subsequent to subarachnoid bleeding, showing the same effect as that of the compound used in Example 1"}
    ]}
  ]
}
